The record followed here is publication PMC10461229 (Journal of Medicinal Chemistry, 2023).

Read-outs that look alike come from different tables or passages of the source. A value given as a limit tells only on which side of the number the result lay.

The IC50 is the midpoint of a concentration-inhibition curve.

For this experiment, the system named is wild-type (WT) Mtb Erdman. The experiment is described as follows: microbe, parasite or virus in culture. Particulars: read-out: MABA mean IC50 ± SD. It counts as cell-based, Mycobacterium tuberculosis.
[1] abbreviates: Mycobacterium tuberculosis, ERDMAN.

Consider `O=C(O)C1CSc2c(C3CC3)c(-c3cn(-c4cccc(C(F)(F)F)c4)nn3)cc(=O)n21` (racemic) [Compound 15b, (±) 8-Cyclopropyl-5-oxo-7-(1-(3-(trifluoromethyl)phenyl)-1H-1,2,3-triazol-4-yl)-2,3-dihydro-5H-thiazolo[3,2-a]pyridine-3-carboxylic Acid], for which, under setting [1], the IC50 was above 25 µM. On to `O=C(O)C1CSc2c(C3CC3)c(CSc3nnc(-c4ccc5ccccc5c4)o3)cc(=O)n21` (racemic) [Compound 8d, (±) 8-Cyclopropyl-7-(((5-(naphthalen-2-yl)-1,3,4-oxadiazol-2-yl)thio)methyl)-5-oxo-2,3-dihydro-5H-thiazolo[3,2-a]pyridine-3-carboxylic Acid], for which the IC50 is 3.53 ± 1.9 µM. Further, the IC50 under setting [1] worked out at 3.5 µM. `O=C(O)C1CSc2c(C3CC3)c(-c3cc(C4CCCCC4)no3)cc(=O)n21` (racemic) [Compound 17d, (±) 7-(3-Cyclohexylisoxazol-5-yl)-8-cyclopropyl-5-oxo-2,3-dihydro-5H-thiazolo[3,2-a]pyridine-3-carboxylic Acid]: under setting [1], the IC50 was above 25 µM. Turning to `O=C(O)C1CSc2c(C3CC3)c(-c3nc4ccccc4[nH]3)cc(=O)n21` (racemic) [Compound 10, (±) 7-(1H-benzo[d]imidazole-2-yl)-8-cyclopropyl-5-oxo-2,3-dihydro-5H-thiazolo[3,2-a]pyridine-3-carboxylic Acid], the IC50 under setting [1] was above 25 µM.

Turning to `O=C(O)C1CSc2c(C3CC3)c(-c3cc(-c4cccc5ccccc45)on3)cc(=O)n21` (racemic) [Compound 19a, (±) 8-Cyclopropyl-7-(5-(naphthalen-1-yl)isoxazol-3-yl)-5-oxo-2,3-dihydro-5H-thiazolo[3,2-a]pyridine-3-carboxylic Acid], the IC50 under setting [1] was found to be 3.9 ± 1.43 µM. On to `O=C(O)C1CSc2c(C3CC3)c(CSc3nnc(Cc4cccc5ccccc45)o3)cc(=O)n21` (racemic) [Compound 8c, (±) 8-Cyclopropyl-7-(((5-(naphthalen-1-ylmethyl)-1,3,4-oxadiazol-2-yl)thio)methyl)-5-oxo-2,3-dihydro-5H-thiazolo[3,2-a]pyridine-3-carboxylic Acid], for which the IC50 under setting [1] is above 25 µM. For `O=C(O)C1CSc2c(C3CC3)c(CSc3nnc(-c4ccncc4)o3)cc(=O)n21` (racemic) [Compound 8i, (±) 8-Cyclopropyl-5-oxo-7-(((5-(pyridin-4-yl)-1,3,4-oxadiazol-2-yl)thio)methyl)-2,3-dihydro-5H-thiazolo[3,2-a]pyridine-3-carboxylic Acid], the IC50 under setting [1] was above 25 µM.

Turning to `O=C(O)C1CSc2c(C3CC3)c(-c3cc(-c4cccc(C(F)(F)F)c4)no3)cc(=O)n21` (racemic) [Compound 17b, (±) 8-Cyclopropyl-5-oxo-7-(3-(3-(trifluoromethyl)phenyl)isoxazol-5-yl)-2,3-dihydro-5H-thiazolo[3,2-a]pyridine-3-carboxylic Acid], the 50% inhibitory concentration (IC50) under setting [1] turned out to be 3.04 ± 0.58 µM. Take `CC(C)(C)c1cc(-c2cc(-c3cc(=O)n4c(c3C3CC3)SCC4C(=O)O)on2)cc(C(C)(C)C)c1` (racemic) [Compound 17k, (±) 8-Cyclopropyl-7-(3-(3,5-di-tert-butylphenyl)isoxazol-5-yl)-5-oxo-2,3-dihydro-5H-thiazolo[3,2-a]pyridine-3-carboxylic Acid]: under setting [1], the IC50 was found to be 3.13 ± 0.16 µM. Still for that read-out and setting: as for `O=C(O)C1CSc2c(C3CC3)c(CSc3nnc(-c4cccs4)o3)cc(=O)n21` (racemic) [Compound 8j, (±) 8-Cyclopropyl-5-oxo-7-(((5-(thiophen-2-yl)-1,3,4-oxadiazol-2-yl)thio)methyl)-2,3-dihydro-5H-thiazolo[3,2-a]pyridine-3-carboxylic Acid], the figure is above 25 µM; as for `O=C(O)C1CSc2c(C3CC3)c(-c3cn(-c4cccc5ccccc45)nn3)cc(=O)n21` (racemic) [Compound 15a, (±) 8-Cyclopropyl-7-(1-(naphthalen-1-yl)-1H-1,2,3-triazol-4-yl)-5-oxo-2,3-dihydro-5H-thiazolo[3,2-a]pyridine-3-carboxylic Acid], above 25 µM; as for `O=C(O)C1CSc2c(C3CC3)c(-c3cc(-c4ccc([N+](=O)[O-])cc4)no3)cc(=O)n21` (racemic) [Compound 17f, (±) 8-Cyclopropyl-7-(3-(4-nitrophenyl)isoxazol-5-yl)-5-oxo-2,3-dihydro-5H-thiazolo[3,2-a]pyridine-3-carboxylic Acid], 9.27 ± 0.62 µM. The same measure, in the same setting: as for `O=C(O)C1CSc2c(C3CC3)c(CSc3nnc(Cc4ccc5ccccc5c4)o3)cc(=O)n21` (racemic) [Compound 8e, (±) 8-Cyclopropyl-7-(((5-(naphthalen-2-ylmethyl)-1,3,4-oxadiazol-2-yl)thio)methyl)-5-oxo-2,3-dihydro-5H-thiazolo[3,2-a]pyridine-3-carboxylic Acid], the figure is above 25 µM; as for `O=C(O)C1CSc2c(C3CC3)c(-c3cc(-c4ccc5c(c4)OCO5)no3)cc(=O)n21` (racemic) [Compound 17o, (±) 7-(3-(Benzo[d][1,3]dioxol-5-yl)isoxazol-5-yl)-8-cyclopropyl-5-oxo-2,3-dihydro-5H-thiazolo[3,2-a]pyridine-3-carboxylic Acid], 2.02 ± 0.46 µM; as for `O=C(O)C1CSc2c(C3CC3)c(CSc3nnc(-c4ccco4)o3)cc(=O)n21` (racemic) [Compound 8k, (±) 8-Cyclopropyl-7-(((5-(furan-2-yl)-1,3,4-oxadiazol-2-yl)thio)methyl)-5-oxo-2,3-dihydro-5H-thiazolo[3,2-a]pyridine-3-carboxylic Acid], above 25 µM.

With `O=C(O)C1CSc2c(C3CC3)c(-c3cn(-c4ccc5ccccc5c4)nn3)cc(=O)n21` (racemic) [Compound 15c, (±) 8-Cyclopropyl-7-(1-(naphthalen-2-yl)-1H-1,2,3-triazol-4-yl)-5-oxo-2,3-dihydro-5H-thiazolo[3,2-a]pyridine-3-carboxylic Acid], under setting [1], the IC50 stood at 7.37 ± 0.83 µM. Take `O=C(O)C1CSc2c(C3CC3)c(CSc3nnc(COc4ccc(F)cc4)o3)cc(=O)n21` (racemic) [Compound 8l, (±) 8-Cyclopropyl-7-(((5-((4-fluorophenoxy)methyl)-1,3,4-oxadiazol-2-yl)thio)methyl)-5-oxo-2,3-dihydro-5H-thiazolo[3,2-a]pyridine-3-carboxylic Acid]: the IC50 under setting [1] is above 25 µM. Still for that read-out and setting: the figure for `O=C(O)C1CSc2c(C3CC3)c(-c3nc4ccccc4o3)cc(=O)n21` (racemic) [Compound 13, (±) 7-(Benzo[d]oxazol-2-yl)-8-cyclopropyl-5-oxo-2,3-dihydro-5H-thiazolo[3,2-a]pyridine-3-carboxylic Acid] is above 25 µM. Still for that read-out and setting: as for `O=C(O)C1CSc2c(C3CC3)c(-c3cc(-c4cccc(C(F)(F)F)c4)on3)cc(=O)n21` (racemic) [Compound 19b, (±) 8-Cyclopropyl-5-oxo-7-(5-(3-(trifluoromethyl)phenyl)isoxazol-3-yl)-2,3-dihydro-5H-thiazolo[3,2-a]pyridine-3-carboxylic Acid], the figure is 5.09 ± 1.3 µM; as for `O=C(O)C1CSc2c(C3CC3)c(-c3cc(-c4c5ccccc5cc5ccccc45)no3)cc(=O)n21` (racemic) [Compound 17i, (±) 7-(3-(Anthracen-9-yl)isoxazol-5-yl)-8-cyclopropyl-5-oxo-2,3-dihydro-5H-thiazolo[3,2-a]pyridine-3-carboxylic Acid], 1.56 ± 0.31 µM; as for `O=C(O)C1CSc2c(C3CC3)c(-c3cc(-c4cccs4)no3)cc(=O)n21` (racemic) [Compound 17n, (±) 8-Cyclopropyl-5-oxo-7-(3-(thiophen-2-yl)isoxazol-5-yl)-2,3-dihydro-5H-thiazolo[3,2-a]pyridine-3-carboxylic Acid], above 25 µM. Still for that read-out and setting: the figure for `COc1ccc(-c2cc(-c3cc(=O)n4c(c3C3CC3)SCC4C(=O)O)on2)cc1` (racemic) [Compound 17e, (±) 8-Cyclopropyl-7-(3-(4-methoxyphenyl)isoxazol-5-yl)-5-oxo-2,3-dihydro-5H-thiazolo[3,2-a]pyridine-3-carboxylic Acid] is 2.62 ± 0.28 µM; for `O=C(O)C1CSc2c(C3CC3)c(-c3cc(C4CC4)no3)cc(=O)n21` (racemic) [Compound 17c, (±) 8-Cyclopropyl-7-(3-cyclopropylisoxazol-5-yl)-5-oxo-2,3-dihydro-5H-thiazolo[3,2-a]pyridine-3-carboxylic Acid] it is above 25 µM. Consider `O=C(O)C1CSc2c(C3CC3)c(-c3cc(-c4cc(F)cc(F)c4)no3)cc(=O)n21` (racemic) [Compound 17l, (±) 8-Cyclopropyl-7-(3-(3,5-difluorophenyl)isoxazol-5-yl)-5-oxo-2,3-dihydro-5H-thiazolo[3,2-a]pyridine-3-carboxylic Acid], for which, under setting [1], the IC50 came to 23.6 ± 1.51 µM.

Turning to `O=C(O)C1CSc2c(C3CC3)c(CSc3nnc(-c4ccc([N+](=O)[O-])cc4)o3)cc(=O)n21` (racemic) [Compound 8g, (±) 8-Cyclopropyl-7-(((5-(4-nitrophenyl)-1,3,4-oxadiazol-2-yl)thio)methyl)-5-oxo-2,3-dihydro-5H-thiazolo[3,2-a]pyridine-3-carboxylic Acid], the IC50 under setting [1] is above 25 µM. Still for that read-out and setting: as for `O=C(O)C1CSc2c(C3CC3)c(CSc3nnc(-c4cccc5ccccc45)o3)cc(=O)n21` (racemic) [Compound 8a, (±) 8-Cyclopropyl-7-(((5-(naphthalen-1-yl)-1,3,4-oxadiazol-2-yl)thio)methyl)-5-oxo-2,3-dihydro-5H-thiazolo[3,2-a]pyridine-3-carboxylic Acid], the figure is 12.6 ± 2.16 µM; as for `COc1cccc(-c2nnc(SCc3cc(=O)n4c(c3C3CC3)SCC4C(=O)O)o2)c1` (racemic) [Compound 8h, (±) 8-Cyclopropyl-7-(((5-(3-methoxyphenyl)-1,3,4-oxadiazol-2-yl)thio)methyl)-5-oxo-2,3-dihydro-5H-thiazolo[3,2-a]pyridine-3-carboxylic Acid], above 25 µM. Still for that read-out and setting: as for `O=C(O)C1CSc2c(C3CC3)c(-c3cc(-c4cccc5ccccc45)no3)cc(=O)n21` (racemic) [Compound 17a, (±) 8-Cyclopropyl-7-(3-(naphthalen-1-yl)isoxazol-5-yl)-5-oxo-2,3-dihydro-5H-thiazolo[3,2-a]pyridine-3-carboxylic Acid], the figure is 1.86 ± 1.13 µM.
